Test results taken from patent US11046716B2, “Beta-lactamase inhibitors” (priority 2015, dated 2021).

Experiments:
[1] = test system: K. pneumoniae producing the Class D carbapenemase OXA-48; assay: Broth microdilution MIC assay with meropenem, K. pneumoniae OXA-48; assay type: cell-based; settings: Fixed Mero (meropenem) 4 μg/mL; K. p. 11978 OXA-48
Procedure, shortened: (§1)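 Visual MIC readout of the test compound after 16-20 hours at 37° C, measured in the presence of a constant 4 μg/ml β-lactam. Compound concentrations spanned 16 to 0.125 μg/mL in 2-fold steps in cation-adjusted Mueller Hinton broth.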

KPC-2 = target: T1, KPC-2 (Klebsiella pneumoniae, UniProt Q9F663); assay: β-lactamase enzyme inhibition assay, KPC-2 (imipenem substrate); assay type: biochemical; settings: Class A; imipenem substrate, 300 nm; read-out: KPC-2
T1 construct: made in house; host or cells: E. coli BL21(DE3)
T1 sequence (Q9F663 25-293, looked up): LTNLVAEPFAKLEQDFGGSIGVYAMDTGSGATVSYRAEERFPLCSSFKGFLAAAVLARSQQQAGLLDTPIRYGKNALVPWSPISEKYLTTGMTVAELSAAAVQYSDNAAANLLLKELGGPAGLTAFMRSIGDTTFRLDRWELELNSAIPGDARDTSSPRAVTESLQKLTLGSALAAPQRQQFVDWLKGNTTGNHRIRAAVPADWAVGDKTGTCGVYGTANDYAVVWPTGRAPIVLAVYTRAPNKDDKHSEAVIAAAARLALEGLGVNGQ
Procedure, shortened: (§2)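 Native untagged enzymes expressed in E. coli BL21(DE3), purified by cation exchange and gel filtration. Inhibitor preincubated with enzyme 15 min at 37 °C; hydrolysis followed by absorbance: imipenem at 300 nm for KPC-2, cefotaxime at 260 nm for SHV-5. IC50 as concentration halving initial hydrolysis rate versus inhibitor-free wells.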

SHV-5 = target: T2, SHV-5 (Klebsiella pneumoniae, UniProt P0A3M1); assay: β-lactamase enzyme inhibition assay, SHV-5 (cefotaxime substrate); assay type: biochemical
T2 construct: made in house; host or cells: E. coli BL21(DE3)
T2 sequence (P0A3M1 22-286): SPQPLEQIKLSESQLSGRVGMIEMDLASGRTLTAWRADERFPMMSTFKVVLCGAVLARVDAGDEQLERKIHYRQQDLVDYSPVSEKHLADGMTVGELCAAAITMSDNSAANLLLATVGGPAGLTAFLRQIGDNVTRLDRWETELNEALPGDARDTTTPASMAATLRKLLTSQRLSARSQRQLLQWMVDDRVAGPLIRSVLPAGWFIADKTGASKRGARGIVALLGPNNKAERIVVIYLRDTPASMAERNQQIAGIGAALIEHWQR
Procedure, shortened: as §2

AmpC = target: T3, AmpC (Enterobacter cloacae, UniProt P05364); assay: β-lactamase enzyme inhibition assay, p99 AmpC (nitrocefin substrate); assay type: biochemical
T3 construct: made in house; host or cells: E. coli BL21(DE3)
T3 sequence (P05364 21-381): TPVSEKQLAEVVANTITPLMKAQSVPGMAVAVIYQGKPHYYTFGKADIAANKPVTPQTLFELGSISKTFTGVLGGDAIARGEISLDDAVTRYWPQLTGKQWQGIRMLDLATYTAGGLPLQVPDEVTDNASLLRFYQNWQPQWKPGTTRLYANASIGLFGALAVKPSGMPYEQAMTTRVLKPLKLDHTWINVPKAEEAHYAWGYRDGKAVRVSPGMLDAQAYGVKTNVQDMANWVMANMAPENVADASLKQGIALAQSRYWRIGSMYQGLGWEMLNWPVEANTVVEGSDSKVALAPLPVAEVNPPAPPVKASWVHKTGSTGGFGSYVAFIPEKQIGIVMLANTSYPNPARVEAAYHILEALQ
Procedure, shortened: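 Native untagged enzymes expressed in E. coli BL21(DE3), purified by cation exchange and gel filtration. Inhibitor preincubated with enzyme 15 min at 37 °C; hydrolysis followed by absorbance. IC50 as concentration halving initial hydrolysis rate versus inhibitor-free wells.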

VIM-2 = target: T4, VIM-2 (Escherichia coli, UniProt Q5U7L7); assay: β-lactamase enzyme inhibition assay, VIM-2 (nitrocefin substrate); assay type: biochemical; settings: Class B; nitrocefin substrate, 486 nm; read-out: VIM-2
T4 construct: made in house; host or cells: E. coli BL21(DE3)
Procedure, shortened: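 Nitrocefin hydrolysis, read at 486 nm over 10 min, served as the measure of VIM-2 activity. The enzyme had been incubated with compound for 15 min at 37 °C before 100 μM substrate was added, and IC50 values were fitted from percent inhibition of the initial rate.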

OXA-48 = OXA-48 (UniProt Q6XEC0); assay: β-lactamase enzyme inhibition assay, Class D oxacillinase; assay type: biochemical; settings: read-out: OXA-48
[2] = test system: P. aeruginosa expressing the Class B carbapenemase VIM-2; assay: Broth microdilution MIC assay with meropenem, P. aeruginosa VIM-2; assay type: cell-based; settings: Fixed Mero (meropenem) 4 μg/mL; P. aerug. 2775 VIM-2
Procedure, shortened: as §1

[3] = test system: K. pneumoniae expressing the class A carbapenemase KPC-2 and the class B carbapenemase VIM-4; assay: Broth microdilution MIC assay with meropenem, K. pneumoniae KPC-2 and VIM-4; assay type: cell-based; settings: Fixed Mero (meropenem) 4 μg/mL; K. p. A-1797 KPC-2 VIM-4
Procedure, shortened: as §1

[4] = test system: E. cloacae expressing the Class C P99; assay: Broth microdilution MIC assay with ceftazidime, E. cloacae P99; assay type: cell-based; settings: Fixed CAZ (ceftazidime) 4 μg/mL; E. cl. 144200 p99 AmpC
Procedure, shortened: as §1

[5] = test system: E. coli expressing the Class A Extended Spectrum Beta-Lactamase (ESBL) CTX-M-15; assay: Broth microdilution MIC assay with ceftazidime, E. coli CTX-M-15; assay type: cell-based; settings: Fixed CAZ (ceftazidime) 4 μg/mL; E. coli ESBL4 CTX-M-15
Procedure, shortened: as §1

[6] = test system: K. pneumoniae expressing the Class A carbapenemase KPC-2; assay: Broth microdilution MIC assay with meropenem, K. pneumoniae KPC-2; assay type: cell-based; settings: Fixed Mero (meropenem) 4 μg/mL; K. p. 156319 KPC-3
Procedure, shortened: as §1

Row | Structure (SMILES) | MIC (μg/mL) of Exemplary Compounds in presence of fixed β-lactams: K. p. 11978 OXA-48 [1] | IC50 (KPC-2) [nM] | IC50 (SHV-5) [nM] | IC50 (AmpC) [nM] | IC50 (VIM-2) [nM] | IC50 (OXA-48) [nM] | MIC (μg/mL) of Exemplary Compounds in presence of fixed β-lactams: P. aerug. 2775 VIM-2 [2] | MIC (μg/mL) of Exemplary Compounds in presence of fixed β-lactams: K. p. A-1797 KPC-2 VIM-4 [3] | MIC (μg/mL) of Exemplary Compounds in presence of fixed β-lactams: E. cl. 144200 p99 AmpC [4] | MIC (μg/mL) of Exemplary Compounds in presence of fixed β-lactams: E. coli ESBL4 CTX-M-15 [5] | MIC (μg/mL) of Exemplary Compounds in presence of fixed β-lactams: K. p. 156319 KPC-3 [6]
1 | O=C(Cn1cc2c(n1)CNC2)N[C@H]1Cc2cccc(C(=O)O)c2OB1O [Example 57, (R)-3-(2-(5,6-dihydropyrrolo[3,4-c]pyrazol-2(4H)-yl)acetamido)-2-hydroxy-3,4-dihydro-2H-benzo[e][1,2]oxaborinine-8-carboxylic acid] | B (B represents an MIC between 1 and 16 μg/mL inclusive) | < 100 | < 100 | < 100 | 100 to 1000 | 1000 to 10000 | B (B represents an MIC between 1 and 16 μg/mL inclusive) | B (B represents an MIC between 1 and 16 μg/mL inclusive) | C (C represents an MIC of <1 μg/mL) | C (C represents an MIC of <1 μg/mL) | C (C represents an MIC of <1 μg/mL)
2 | Nc1cnn(CC(=O)N[C@H]2Cc3cccc(C(=O)O)c3OB2O)c1 [Example 58, (R)-3-(2-(4-amino-1H-pyrazol-1-yl)acetamido)-2-hydroxy-3,4-dihydro-2H-benzo[e][1,2]oxaborinine-8-carboxylic acid] | B (B represents an MIC between 1 and 16 μg/mL inclusive) | < 100 | < 100 | < 100 | 100 to 1000 | 100 to 1000 | B (B represents an MIC between 1 and 16 μg/mL inclusive) | B (B represents an MIC between 1 and 16 μg/mL inclusive) | C (C represents an MIC of <1 μg/mL) | C (C represents an MIC of <1 μg/mL) | B (B represents an MIC between 1 and 16 μg/mL inclusive)
3 | NCCn1cc(C(=O)N[C@H]2Cc3cccc(C(=O)O)c3OB2O)nn1 [Example 59, (R)-3-(1-(2-aminoethyl)-1H-1,2,3-triazole-4-carboxamido)-2-hydroxy-3,4-dihydro-2H-benzo[e][1,2]oxaborinine-8-carboxylic acid] | A (A represents an MIC>16 μg/mL) | < 100 | < 100 | < 100 | < 100 | 1000 to 10000 | C (C represents an MIC of <1 μg/mL) | B (B represents an MIC between 1 and 16 μg/mL inclusive) | C (C represents an MIC of <1 μg/mL) | C (C represents an MIC of <1 μg/mL) | B (B represents an MIC between 1 and 16 μg/mL inclusive)
4 | CC(C)(C(=O)N[C@H]1Cc2cccc(C(=O)O)c2OB1O)n1cc(CNCCN)nn1 [Example 60, (R)-3-(2-(4-(((2-aminoethyl)amino)methyl)-1H-1,2,3-triazol-1-yl)-2-methylpropanamido)-2-hydroxy-3,4-dihydro-2H-benzo[e][1,2]oxaborinine-8-carboxylic acid] | B (B represents an MIC between 1 and 16 μg/mL inclusive) | 100 to 1000 | < 100 | < 100 | < 100 | < 100 | C (C represents an MIC of <1 μg/mL) | C (C represents an MIC of <1 μg/mL) | C (C represents an MIC of <1 μg/mL) | B (B represents an MIC between 1 and 16 μg/mL inclusive) | B (B represents an MIC between 1 and 16 μg/mL inclusive)
5 | NCCONC(=O)c1cn(CC(=O)N[C@H]2Cc3cccc(C(=O)O)c3OB2O)nn1 [Example 61, (R)-3-(2-(4-((2-aminoethoxy)carbamoyl)-1H-1,2,3-triazol-1-yl)acetamido)-2-hydroxy-3,4-dihydro-2H-benzo[e][1,2]oxaborinine-8-carboxylic acid] | B (B represents an MIC between 1 and 16 μg/mL inclusive) | < 100 | < 100 | < 100 | 100 to 1000 | 100 to 1000 | C (C represents an MIC of <1 μg/mL) | B (B represents an MIC between 1 and 16 μg/mL inclusive) | C (C represents an MIC of <1 μg/mL) | C (C represents an MIC of <1 μg/mL) | B (B represents an MIC between 1 and 16 μg/mL inclusive)
6 | Nc1cc(-c2cn(CC(=O)N[C@H]3Cc4cccc(C(=O)O)c4OB3O)nn2)ccn1 [Example 62, (R)-3-(2-(4-(2-aminopyridin-4-yl)-1H-1,2,3-triazol-1-yl)acetamido)-2-hydroxy-3,4-dihydro-2H-benzo[e][1,2]oxaborinine-8-carboxylic acid] | B (B represents an MIC between 1 and 16 μg/mL inclusive) | < 100 | < 100 | < 100 | 100 to 1000 | < 100 | B (B represents an MIC between 1 and 16 μg/mL inclusive) | A (A represents an MIC>16 μg/mL) | C (C represents an MIC of <1 μg/mL) | C (C represents an MIC of <1 μg/mL) | C (C represents an MIC of <1 μg/mL)
7 | NCCSCc1cn(CC(=O)N[C@H]2Cc3cccc(C(=O)O)c3OB2O)nn1 [Example 63, (R)-3-(2-(4-(((2-aminoethyl)thio)methyl)-1H-1,2,3-triazol-1-yl)acetamido)-2-hydroxy-3,4-dihydro-2H-benzo[e][1,2]oxaborinine-8-carboxylic acid] | B (B represents an MIC between 1 and 16 μg/mL inclusive) | < 100 | < 100 | < 100 | 100 to 1000 | 100 to 1000 | C (C represents an MIC of <1 μg/mL) | B (B represents an MIC between 1 and 16 μg/mL inclusive) | C (C represents an MIC of <1 μg/mL) | C (C represents an MIC of <1 μg/mL) | C (C represents an MIC of <1 μg/mL)
